Measurements: patent publication US8951985B2, “Compounds and pharmaceutical compositions for the treatment of viral infections” (Idenix Pharmaceuticals, Inc., priority 2011, dated 2015)
Read-outs that look alike come from different tables or passages of the source.

Columns and labels:
HCV genotype 1b replicon = assay: HCV replicon assay (HCV-REPL LUC), luciferase reporter; format: cell-based, hepatitis C virus
Protocol: Huh-7-derived cell line (Zluc) that harbors an HCV genotype 1b replicon and a luciferase reporter gene was grown in Dulbecco's Modified Eagle Medium (DMEM) supplemented with 10% fetal bovine serum, 2 mM GlutaMAX, 1% MEM nonessential amino acids, 100 IU/mL penicillin, 100 μg/mL streptomycin, and 0.5 mg/mL Geneticin® (G418). For dose response testing the cells were seeded in 96-well plates at 7.5×10^3 cells per well in a volume of 50 μl, and incubated at 37° C./5% CO2. Drug solutions were made up freshly in Huh-7 media as 2× stocks. Ten additional 5-fold dilutions were prepared from these stocks in DMEM without G418. At least three hours after Zluc cells were seeded, drug treatment was initiated by adding 50 μL of drug dilutions to the plates in duplicate. […] Cells were then incubated at 37° C./5% CO2. Alternatively compounds were tested at two concentrations (10 nM and 100 nM). […] After 72 hours of incubation, the inhibition of HCV replication was measured by quantification of photons emitted after mono-oxygenation of 5′-fluoroluciferin to oxyfluoroluciferin by firefly luciferase. For this, media was removed from the plates via gentle tapping. Fifty microliters of ONE-glo luciferase assay reagent was added to each well. The plates were shaken gently for 3 min at room temperature and luminescence was measured on a Victor^3 V 1420 multilabel counter (Perkin Elmer) with a 1 second read time using a 700 nm cut-off filter. The EC50 values were calculated from dose response curves from the resulting best-fit equations determined by Microsoft Excel and XLfit 4.1 software.
Compounds presented in the table below were assayed according to the replicon assay described above.

[1] = Cytotoxicity evaluation, CellTiter-Blue Cell Viability Assay; format: cell-based; details: human, Zluc cells (Huh-7-derived HCV replicon cell line)
Protocol: (§1) For cytotoxicity evaluation, Zluc cells were treated with compound as described above, and cell viability was monitored using the CellTiter-Blue Cell Viability Assay (Promega) by adding 20 μL of the assay solution to each well. The plates were then incubated at 37° C./5% CO2 for at least 3 hours. Fluorescence was detected in plates using excitation and emission wavelengths of 560 and 590 nm, respectively, in a Victor^3 V 1420 multilabel counter (Perkin Elmer) and CC50 values were determined using Microsoft Excel and XLfit 4.1 software.

[2] = test system: Zluc cells (Huh-7-derived cell line); assay: as above; format: cell-based; details: read-out: HCV Replicon CC50
Protocol: as §1

[3] = Hepatitis C virus, Huh-7, 72 h, read-out: HCV Replicon EC50, Zluc cells (Huh-7, HCV genotype 1b replicon, luciferase), 72 hours incubation

## CCOC(=O)COP(=O)(N[C@@H](CC(C)C)C(=O)OC(C)C)OC[C@H]1O[C@@H](n2cnc3c(OC)nc(N)nc32)[C@](C)(O)[C@@H]1O (stereo partly shown) [Compound 11]
HCV genotype 1b replicon; [3]
  EC50: < 0.5 µM
[1]
  CC50: ≥ 100 µM

## CCOC(=O)COP(=O)(N[C@H](C(=O)OC)C(C)C)OC[C@H]1O[C@@H](n2cnc3c(OCC)nc(N)nc32)[C@](C)(O)[C@@H]1O (mixture of isomers) [Compound 7]
HCV genotype 1b replicon; [3]
  EC50: 1 to 5 µM
[1]
  CC50: ≥ 100 µM

## CCOC(=O)[C@H](Cc1ccccc1)NP(=O)(OCC(=O)OC(C)C)OC[C@H]1O[C@@H](n2cnc3c(OC)nc(N)nc32)[C@](C)(O)[C@@H]1O (mixture of isomers) [Compound 2]
HCV genotype 1b replicon; [3]
  EC50: 0.5 to 1 µM
[1]
  CC50: ≥ 100 µM

## CCOC(=O)COP(=O)(N[C@@H](CCSC)C(=O)OCC)OC[C@H]1O[C@@H](n2cnc3c(OC)nc(N)nc32)[C@](C)(O)[C@@H]1O (mixture of isomers) [Compound 9]
HCV genotype 1b replicon; [3]
  EC50: 1 to 5 µM
[1]
  CC50: ≥ 100 µM

## CCOC(=O)COP(=O)(N[C@@H](CC(C)C)C(=O)OC(C)C)OC[C@H]1O[C@@H](n2cnc3c(OC)nc(N)nc32)[C@](C)(O)[C@@H]1O (single isomer, unassigned) [Compound 11a]
HCV genotype 1b replicon; [3]
  EC50: 1 to 5 µM
[1]
  CC50: ≥ 100 µM

## COc1nc(N)nc2c1ncn2[C@@H]1O[C@H](COP(=O)(N[C@@H](CC(C)C)C(=O)OC(C)C)OCC(=O)NCc2ccc(F)cc2)[C@@H](O)[C@@]1(C)O (mixture of isomers) [Compound 10]
HCV genotype 1b replicon; [3]
  EC50: 1 to 5 µM
[1]
  CC50: ≥ 100 µM

## CCOC(=O)COP(=O)(N[C@H](Cc1ccccc1)C(=O)OC(C)C)OC[C@H]1O[C@@H](n2cnc3c(OC)nc(N)nc32)[C@](C)(O)[C@@H]1O (stereo partly shown) [Compound 3]
HCV genotype 1b replicon; [3]
  EC50: 5 to 10 µM
[1]
  CC50: ≥ 100 µM

## CCOC(=O)COP(=O)(N[C@@H](CC(C)C)C(=O)OC(C)C)OC[C@H]1O[C@@H](n2cnc3c(OC)nc(N)nc32)[C@](C)(O)[C@@H]1O (single isomer, unassigned) [Compound 11b]
HCV genotype 1b replicon; read-out: HCV Replicon EC50, Zluc cells (Huh-7, HCV genotype 1b replicon, luciferase), 72 hours incubation
  EC50: < 0.5 µM
[2]
  CC50: 50 to 99 µM

## COc1nc(N)nc2c1ncn2[C@@H]1O[C@H](COP(=O)(N[C@@H](CC(C)C)C(=O)OC(C)C)OCCCC(=O)NCc2ccc(F)cc2)[C@@H](O)[C@@]1(C)O (stereo partly shown) [Compound 5]
HCV genotype 1b replicon; [3]
  EC50: 5 to 10 µM
[1]
  CC50: ≥ 100 µM

## COc1nc(N)nc2c1ncn2[C@@H]1O[C@H](COP(=O)(N[C@@H](CC(C)C)C(=O)OC(C)C)OC(C)C(=O)OCc2ccccc2)[C@@H](O)[C@@]1(C)O (stereo partly shown) [Compound 4]
HCV genotype 1b replicon; [3]
  EC50: 0.5 to 1 µM
[1]
  CC50: 50 to 99 µM

## CCOC(=O)[C@@H](NP(=O)(OCCC(=O)OC(C)(C)C)OC[C@H]1O[C@@H](n2cnc3c(OC)nc(N)nc32)[C@](C)(O)[C@@H]1O)C(C)C (mixture of isomers) [Compound 6]
HCV genotype 1b replicon; [3]
  EC50: 1 to 5 µM
[1]
  CC50: ≥ 100 µM

## CCOC(=O)COP(=O)(N[C@@H](CC(C)C)C(=O)OC(C)C)OC[C@H]1O[C@@H](n2cnc3c(OC)nc(N)nc32)[C@](C)(F)[C@@H]1O (mixture of isomers) [Compound 12]
HCV genotype 1b replicon; [3]
  EC50: 0.5 to 1 µM
[1]
  CC50: ≥ 100 µM

## COc1nc(N)nc2c1ncn2[C@@H]1O[C@H](COP(=O)(N[C@@H](C)C(=O)OC(C)C)OCC(=O)OC(C)C)[C@@H](O)[C@@]1(C)O (stereo partly shown) [Compound 1]
HCV genotype 1b replicon; [3]
  EC50: 1 to 5 µM
[1]
  CC50: ≥ 100 µM

## CCOC(=O)COP(=O)(NC(C(=O)OCC)c1ccccc1)OC[C@H]1O[C@@H](n2cnc3c(OC)nc(N)nc32)[C@](C)(O)[C@@H]1O (stereo partly shown) [Compound 8]
HCV genotype 1b replicon; [3]
  EC50: 5 to 10 µM
[1]
  CC50: ≥ 100 µM
